Test results as given in ChEMBL document CHEMBL3046687, “New thiazolidine-2,4-diones as antimicrobial and cytotoxic agent” (Med Chem Res, 2012).
≈ marks a conversion by molar mass, not a printed value.

Assays:
Cryptococcus neoformans = assay: Antimicrobial activity against Cryptococcus neoformans clinical isolate after 48 hr by two-fold serial dilution method; type: functional
Staphylococcus aureus = assay: Antimicrobial activity against Staphylococcus aureus ATCC 25923 after 24 hr by two fold serial dilution method; type: functional; settings: ATCC 25923, 24 h
Enterococcus faecalis = assay: Antimicrobial activity against Enterococcus faecalis ATCC 35550 after 24 hr by two-fold serial dilution method; type: functional; settings: ATCC 35550, 24 h
A549 = assay: Cytotoxicity against Homo sapiens (human) A549 cells after 24 hr by MTT assay; type: functional, cell-based; settings: A549, 24 h
HT-29 = assay: Cytotoxicity against Homo sapiens (human) HT-29 cells after 24 hr by MTT assay; type: functional, cell-based; settings: HT-29, 24 h
Aspergillus niger = assay: Antimicrobial activity against Aspergillus niger ATCC 6275 after 48 hr by two-foldserial dilution method; type: functional; settings: ATCC 6275, 48 h
Escherichia coli = assay: Antimicrobial activity against Escherichia coli ATCC 35218 after 24 hr by two-fold serial dilution method; type: functional; settings: ATCC 35218, 24 h
Pseudomonas aeruginosa = assay: Antimicrobial activity against Pseudomonas aeruginosa ATCC 25619 after 24 hr by two-fold serial dilution method; type: functional; settings: ATCC 25619, 24 h
Candida albicans = assay: Antimicrobial activity against Candida albicans ATCC 2091 after 48 hr by two-fold serial dilution method; type: functional; settings: ATCC 2091, 48 h
Aspergillus flavus = assay: Antimicrobial activity against Aspergillus flavus NCIM 524 after 48 hr by two-fold serial dilution method; type: functional; settings: NCIM 524, 48 h
HeLa = assay: Cytotoxicity against Homo sapiens (human) HeLa cells after 24 hr by MTT assay; type: functional, cell-based
MCF7 = assay: Cytotoxicity against Homo sapiens (human) MCF7 cells after 24 hr by MTT assay; type: functional, cell-based; settings: MCF7, 24 h

SMILES | MIC (Cryptococcus neoformans) [µg/mL] | MIC (Staphylococcus aureus) [µg/mL] | MIC (Enterococcus faecalis) [µg/mL] | MIC (Aspergillus niger) [µg/mL] | MIC (Escherichia coli) [µg/mL] | MIC (Pseudomonas aeruginosa) [µg/mL] | MIC (Candida albicans) [µg/mL] | MIC (Aspergillus flavus) [µg/mL] | IC50 (A549) [µM] | IC50 (HT-29) [µM] | IC50 (HeLa) [µM] | IC50 (MCF7) [µM]
O=C(O)c1ccc(CN2C(=O)S/C(=C\c3ccc(Br)cc3)C2=O)cc1 | 16 (≈ 38.3 µM) | 128 (≈ 306 µM) | 128 (≈ 306 µM) | 32 (≈ 76.5 µM) | 4 (≈ 9.56 µM) | 4 (≈ 9.56 µM) | 16 (≈ 38.3 µM) | 16 (≈ 38.3 µM) | 42 | 30 | 38 | 48
COc1cccc(/C=C2\SC(=O)N(Cc3ccc(C(=O)O)cc3)C2=O)c1 | 16 (≈ 43.3 µM) | 16 (≈ 43.3 µM) | 16 (≈ 43.3 µM) | 32 (≈ 86.6 µM) | 8 (≈ 21.7 µM) | 8 (≈ 21.7 µM) | 32 (≈ 86.6 µM) | 32 (≈ 86.6 µM) | 55 | 48 | 48 | 58
COc1ccc(/C=C2\SC(=O)N(Cc3ccc(C(=O)O)cc3)C2=O)cc1 | 16 (≈ 43.3 µM) | 16 (≈ 43.3 µM) | 16 (≈ 43.3 µM) | 32 (≈ 86.6 µM) | 32 (≈ 86.6 µM) | 32 (≈ 86.6 µM) | 16 (≈ 43.3 µM) | 32 (≈ 86.6 µM) | 44 | 44 | 40 | 48
COc1cc(/C=C2\SC(=O)N(Cc3ccc(C(=O)O)cc3)C2=O)cc(OC)c1OC | 4 (≈ 9.31 µM) | 8 (≈ 18.6 µM) | 8 (≈ 18.6 µM) | 4 (≈ 9.31 µM) | 8 (≈ 18.6 µM) | 8 (≈ 18.6 µM) | 2 (≈ 4.66 µM) | 4 (≈ 9.31 µM) | 36 | 32 | 30 | 30
O=C(O)c1ccc(CN2C(=O)S/C(=C\c3ccccn3)C2=O)cc1 | 16 (≈ 47 µM) | 64 (≈ 188 µM) | 64 (≈ 188 µM) | 32 (≈ 94 µM) | 16 (≈ 47 µM) | 16 (≈ 47 µM) | 32 (≈ 94 µM) | 16 (≈ 47 µM) | 80 | 78 | 62 | 90
O=C(O)c1ccc(CN2C(=O)S/C(=C\c3ccncc3)C2=O)cc1 | 16 (≈ 47 µM) | 32 (≈ 94 µM) | 16 (≈ 47 µM) | 32 (≈ 94 µM) | 16 (≈ 47 µM) | 16 (≈ 47 µM) | 16 (≈ 47 µM) | 32 (≈ 94 µM) | 72 | 80 | 60 | 84
O=C(O)c1ccc(CN2C(=O)S/C(=C\c3cccs3)C2=O)cc1 | 32 (≈ 92.6 µM) | 16 (≈ 46.3 µM) | 32 (≈ 92.6 µM) | 8 (≈ 23.2 µM) | 8 (≈ 23.2 µM) | 16 (≈ 46.3 µM) | 32 (≈ 92.6 µM) | 8 (≈ 23.2 µM) | 80 | 88 | 76 | 76
CC1(C)S[C@@H]2[C@H](NC(=O)[C@H](N)c3ccccc3)C(=O)N2[C@H]1C(=O)O [AMPICILLIN] |  | 2 (≈ 5.72 µM) | 2 (≈ 5.72 µM) |  |  |  |  |  |  |  |  | 
CC(=O)N1CCN(c2ccc(OCC3COC(Cn4ccnc4)(c4ccc(Cl)cc4Cl)O3)cc2)CC1 (configuration not stated) [KETOCONAZOLE] | 2 (≈ 3.76 µM) |  |  | 2 (≈ 3.76 µM) |  |  | 2 (≈ 3.76 µM) | 1 (≈ 1.88 µM) |  |  |  | 

Further molecules by falling MIC (Cryptococcus neoformans), results first:

MIC (Cryptococcus neoformans) [µg/mL] | MIC (Staphylococcus aureus) [µg/mL] | MIC (Enterococcus faecalis) [µg/mL] | MIC (Aspergillus niger) [µg/mL] | MIC (Escherichia coli) [µg/mL] | MIC (Pseudomonas aeruginosa) [µg/mL] | MIC (Candida albicans) [µg/mL] | MIC (Aspergillus flavus) [µg/mL] | SMILES | IC50 (A549) [µM] | IC50 (HT-29) [µM] | IC50 (HeLa) [µM] | IC50 (MCF7) [µM]
64 (≈ 181 µM) | 32 (≈ 90.5 µM) | 32 (≈ 90.5 µM) | 64 (≈ 181 µM) | 16 (≈ 45.3 µM) | 16 (≈ 45.3 µM) | 64 (≈ 181 µM) | 32 (≈ 90.5 µM) | Cc1ccc(/C=C2\SC(=O)N(Cc3ccc(C(=O)O)cc3)C2=O)cc1 | 78 | 72 | 68 | 100
64 (≈ 194 µM) | 32 (≈ 97.2 µM) | 64 (≈ 194 µM) | 32 (≈ 97.2 µM) | 16 (≈ 48.6 µM) | 16 (≈ 48.6 µM) | 64 (≈ 194 µM) | 32 (≈ 97.2 µM) | O=C(O)c1ccc(CN2C(=O)S/C(=C\c3ccco3)C2=O)cc1 | 76 | 94 | 80 | 90
32 (≈ 94 µM) | 128 (≈ 376 µM) | 128 (≈ 376 µM) | 16 (≈ 47 µM) | 32 (≈ 94 µM) | 32 (≈ 94 µM) | 32 (≈ 94 µM) | 16 (≈ 47 µM) | O=C(O)c1ccc(CN2C(=O)S/C(=C\c3cccnc3)C2=O)cc1 | 75 | 90 | 88 | 100
32 (≈ 93.5 µM) | 64 (≈ 187 µM) | 64 (≈ 187 µM) | 16 (≈ 46.7 µM) | 16 (≈ 46.7 µM) | 16 (≈ 46.7 µM) | 32 (≈ 93.5 µM) | 16 (≈ 46.7 µM) | Cn1cccc1/C=C1\SC(=O)N(Cc2ccc(C(=O)O)cc2)C1=O | 80 | 88 | 90 | 70
16 (≈ 47.1 µM) | 128 (≈ 377 µM) | 64 (≈ 189 µM) | 16 (≈ 47.1 µM) | 4 (≈ 11.8 µM) | 8 (≈ 23.6 µM) | 16 (≈ 47.1 µM) | 32 (≈ 94.3 µM) | O=C(O)c1ccc(CN2C(=O)S/C(=C\c3ccccc3)C2=O)cc1 | 90 | 88 | 72 | 100
4 (≈ 11.2 µM) | 2 (≈ 5.6 µM) | 4 (≈ 11.2 µM) | 4 (≈ 11.2 µM) | 4 (≈ 11.2 µM) | 4 (≈ 11.2 µM) | 2 (≈ 5.6 µM) | 4 (≈ 11.2 µM) | O=C(O)c1ccc(CN2C(=O)S/C(=C\c3ccc(F)cc3)C2=O)cc1 | 36 | 32 | 34 | 38
